Tests used:
A549 cancer cells = test: Intracellular ATP production; assay type: cell-based, human; conditions: A549, 10 μM, 12 h
Method: (§1) Since ATP production is a significant consequence attributed to the dysfunction of mitochondrial energy production, we measured intracellular ATP levels after complex 3 treatment.
(§2) The ATP production assay kit (Haimen, Jiangsu, China) was used to measure intracellular ATP level according to the manufacturer's instructions. […] Detection was performed using the luminometer Orion II (Berthold DS, Bleichstr, Pforzheim, Germany).

NCI-H1299 cancer cells = test: Intracellular ATP production; assay type: cell-based, human; conditions: NCI-H1299, 10 μM, 12 h
Method: as §1, §2

A549 cells = test: Quantification of apoptotic cells (annexin V/PI flow cytometry); assay type: cell-based, human
Method: (§3) The role of complex 3-induced autophagy in cell death was further analyzed (Figure 6). When A549 cancer cells were treated with complex 3 of 10 μM, the protein expression of LC3-II was increased (Figure 6A). […] Treatment with complex 3 for 24 h caused a 4.5-folds increase in cells undergoing autophagy (Figure 6C). […] Moreover, Bax and Bcl-2 expressions were measured by western blot analysis of whole cell lysates.
To investigate the role of ROS in complex 3-induced cell death, the level of intracellular H2O2 was measured. […] Exposure of A549 cells to NAC reduced levels of LC3-II from 2.3- to 1.5-folds (Figure 8B). […] In parallel, the complex 3-induced increase ratio of Bax/Bcl-2 was suppressed by NAC (Figure 8E).
The mode of cell death was analyzed by flow cytometry with annexin V/propidium iodide (PI) double-staining to detect membrane events according to a previous study. After individual treatments, whole cells were collected in 4-(2-hydroxyethyl)-1-piperazineethanesulfonic acid (HEPES) buffer containing 10 mM HEPES (pH 7.4), 140 mM NaCl, and 2.5 mM CaCl2. Cells were subsequently stained with annexin V (2.5 μg/ml) and PI (2 ng/ml) for 20 min, followed by analysis by flow cytometry (Beckman Coulter). Cystograms of the four quadrants in the figure were used to distinguish normal (annexin V^−/PI^−), early apoptotic (annexin V^+/PI^−), late apoptotic(annexin V^+/PI^+), and necrotic cells (annexin V^−/PI^+). The sum of early apoptosis and late apoptosis is presented as total apoptosis.

[1] = test system: A549 and NCI-H1299 cancer cells; test: H2O2 measurement (Amplex Red); assay type: cell-based, human; conditions: A549 and NCI-H1299, 10 μM, 2 h
Method: As excessive ROS generation is associated with cell-killing activity, we further examined whether complex 3 could also induce the formation of excessive ROS in A549 and NCI-H1299 cancer cells.
The production of H2O2 was determined with the Amplex® Red reagent (10-acetyl-3,7-dihydroxyphenoxazine; Molecular Probes). In the presence of horseradish peroxidase (HPR), the Amplex® Red reagent reacts in a 1:1 stoichiometry to produce the red-fluorescent oxidation product, resorufin. Consequently, resorufin generation allows the detection of the H2O2 released from biological compounds. […] Resorufin generation was measured over time using a fluorometer (Fluostar BMG Labtech) at 544 nm excitation and 590 nm emission.

cancer cells = test: Analysis of SSB (alkaline elution assay); assay type: cell-based; conditions: 10 μM, 15, 30 and 60 min
Method: Thus, we further identified whether the increased ROS level serves as a cause of DDR. […] To investigate the extent of DNA damage induced by complex 3, we detected the numbers of normal SSB using an alkaline elution assay.
Then the cells were washed three times with PBSCMF (140 mM NaCl, 3 mM KCl, 8 mM Na2HPO4 and 1 mM KH2PO4). The numbers of SSBs were determined by an alkaline elution assay as previously described. The numbers of SSB in untreated cancer cells were subtracted in all cases.

MDC1/Aprataxin = test: Immunostaining of DSB repair proteins; assay type: cell-based, human; conditions: A549, 10 μM, 24 h
Source text: The serine 139-phosphorylated form of chromatin-associated histone H2AX, namely γ-H2AX, is a key marker of cellular response to DDR, particularly DSBs. […] Obviously, pre-treatment of NAC could considerably alleviate the DDR triggered by complex 3 (Figure 5B). Therefore, we came to a conclusion that complex 3 caused DDR especially DSBs in A549 cells, which might happen after the increased level of intracellular ROS. In order to reveal the mechanisms underlying the enhanced DNA damage, complex 3 was studied to learn whether it could reduce the activation of DNA repair response including the co-localization of DSB repair protein MDC1/Aprataxin within nucleus. […] In order to reveal the mechanisms underlying DNA damage, complex 3 was studied to detect whether it could suppress the activation of DNA single strand break repair via the phosphorylation of SSB repair mediator/adaptor proteins XRCC1 within nucleus.
For assessment of DSBs repair kinetics we detected the total nuclear volume for an average of 50–60 nuclei per time points and cell type. Briefly, A549 cells were grown to confluence in 35 mm petri-dishes with 0.17 mm glass bottom. […] Non-specific binding was blocked by incubation with 5% FCS/PBS/0.1% Triton X-100 for 1 h at RT. […] Numbers of γH2AX foci were counted in 50–60 nuclei and plotted over time as previously described.

Bax and Bcl-2 = test: Western blot of Bax and Bcl-2; assay type: cell-based, human; conditions: A549, 10 μM, 24 h, whole cell lysates
Method: as §3
Lysates were centrifuged at 12,000 g for 0.5 h at 4°C. The concentrations of total proteins were measured using the BCA assay method with Varioskan spectrofluorometer and spectrophotometer (Thermo, Waltham, MA) at 562 nm. Protein (20–100 μg) prepared from the indicated cells was loaded per lane and electrophoresed in 8% or 10% sodium dodecyl sulfate polyacrylamide gel electrophoresis (SDS-PAGE), and then transferred onto polyvinylidene difluoride (PVDF) Immobilon-P membrane (Bio-Rad, USA) using a transblot apparatus (Bio-Rad, USA). The membranes were blocked with 5% (w/v) non-fat milk at 0.5 h at 37°C, followed by overnight incubation at 4°C with primary antibodies diluted in PBST. After washing with PBST, the membranes were incubated for 1 h with an IRDye´800 conjugated secondary antibody diluted 1:20000 in PBST, and the labeled proteins were detected with an Odyssey Scanning System (Li-COR., Lincoln, Nebraska, USA).

## CC(C)C[NH+]1[C@@H]2CCCC[C@H]2[NH+](CC(C)C)[Pt-2]12[O]C(=O)CC(=O)[O]2 (some centres unmarked) [Complex 3]
A549 cancer cells
  ATP level, % of untreated cells: 19.95%
NCI-H1299 cancer cells
  ATP level, % of untreated cells: 31.89%
A549 cells; A549, 10 μM complex 18 h, without NAC
  percentage of apoptosis: 52.5%
A549 cells; A549, 5 mM NAC 2 h pretreatment then 10 μM complex 18 h
  percentage of apoptosis: 34.2%
[1]
  production of H2O2: significantly higher
Cancer cells
  numbers of SSBs: could effectively increase the numbers of SSBs
MDC1/Aprataxin
  co-localization of MDC1/Aprataxin to the damaged DNA: dramatically decrease in the co-localization of MDC1/Aprataxin
Bax and Bcl-2
  Bax and Bcl-2 protein levels: Incremental changes in pro-apoptotic Bax and decreased changes anti-apoptotic Bcl-2 protein levels
